Data taken from publication PMC8170916, “Sublingual AKBA Exerts Antidepressant Effects in the Aβ-Treated Mouse Model” (Biomolecules, 2021).

Tests used:
[1] = Plasmatic AKBA levels after sublingual or intranasal administration; assay type: in vivo, mice; conditions: 5 mg/kg
Method: AKBA (Cayman Chemical Company) was dissolved in sunflower oil, this vehicle was chosen in order to maintain a better tasting and higher density of the final solution thus reducing reflux through the digestive tract. […] Ten µL of the solution (or vehicle alone) was sublingually administered to mice. For intranasal administration, requiring more hydrophilic solution, AKBA was dissolved in DMSO and saline (1:3, v/v), and given to mice at the same final dose of 5 mg/kg. […]
[…] The pellets were then removed, and the remaining supernatants were dried on sodium sulphate anhydrous, filtered with 0.20 µm PTFE syringe filters and used for chemical analysis. The quantification of 3-O-acetyl-11-keto-β-boswellic acid (AKBA) was performed by using GC-MS/IT equipment composed of a gas chromatograph GC-7890B (Agilent Technologies, Santa Clara, CA, USA) coupled with an ion trap mass spectrometer IT-240 (Agilent Technologies).
The gas chromatograph was equipped with a VF-5 ms (Agilent J&W GC Columns) capillary column, 30 m × 0.25 mm i.d. × 0.25 µm. […]
The MS electron multiplier voltage was set at 1450 V, and an ionization time of 65,000 µs was used, running in the electron impact (EI) mode. […] These characteristic fragments were selected as a mass target to develop the MS acquisition method operating in single ion scan mode (SIS) to improve the LOD and LOQ for AKBA quantification. […]

Aβ-treated mice = assay: Splash test in Aβ-treated mice; assay type: in vivo; conditions: mice 7 days after icv Aβ 4 µM
GFAP = assay: Western blotting quantification of GFAP in PFC and HIPP; assay type: in vivo; conditions: mice 7 days after icv Aβ 4 µM, sublingual AKBA 5 mg/kg 30 min earlier
Method: (§1) All behavioral experiments were conducted at 5 or 30 min after sublingual administrations of AKBA or vehicle in either SHAM or Aβ-treated mice. Based upon behavioral outcomes observed, neurochemical and biochemical quantifications were performed 30 min after AKBA or vehicle administration in either SHAM or Aβ-treated mice.
(§2) Anesthetized animals were sacrificed by cervical dislocation. Brains were immediately removed and kept on ice for dissection of PFC and HIPP, according to the atlas of Paxinos and Franklin. Tissues were frozen and stored at −80 °C until analyses were carried out. Samples (PFC and HIPP) were homogenized (1:10 w/v) at 4 °C using a PBS buffer containing a 1:100 protease and phosphatase inhibitor cocktail (HALT inhibitors, Thermo Fisher Scientific, Cleveland, OH, USA) for biochemical analyses or perchloric acid 0.1 M for neurochemical analyses. Homogenates were centrifuged at 13,000× g at 4 °C for 20 min, and supernatants were used for further determinations.
(§3) The total amount of proteins was measured in homogenates by using Pierce BCA Assay (Thermo Fisher Scientific, Cleveland, OH, USA). Forty µg of the total lysate protein were separated by SDS-PAGE precast gels (Bio-Rad Laboratories Inc., Segrate (MI), Italy), transferred onto nitrocellulose membranes (Bio-Rad Laboratories Inc, Segrate (MI), Italy) and then blocked for 1 h in blocking buffer (SigmaAldrich, Milan, Italy). Rabbit polyclonal antibody against GFAP (Dako Products, USA; 1:2000), rabbit monoclonal antibody against CD11b (Abcam, Cambridge, MA, USA; ab133357, 1:1000) and mouse monoclonal antibody against NF-kB p65 (Santa Cruz Biotechnology, Dallas, Texas, USA; 1:2000) were used to incubate the membranes overnight at 4 °C. After HRP-conjugated specific antibody incubation, ECL reagent (Bio-Rad Laboratories Inc., Segrate (MI), Italy) was added to the immune complex and chemiluminescence was detected by ChemiDoc MP system (Bio-Rad Laboratories Inc., Segrate (MI), Italy). Optical densities of the bands were measured using ImageJ software (http://rsb.info.nih.gov/ij/ accessed on 15 March 2021) and normalized against bands relative to β-actin (1:5000, Abcam, Cambridge, UK).

CD11b = assay: Western blotting quantification of CD11b in PFC and HIPP; assay type: in vivo; conditions: mice 7 days after icv Aβ 4 µM, sublingual AKBA 5 mg/kg 30 min earlier
Method: as §1, §2, §3

intact mice = assay: Preliminary experiments on antidepressant effects in intact mice; assay type: in vivo; conditions: unpublished observations
Method: AKBA (Cayman Chemical Company) was dissolved in sunflower oil, this vehicle was chosen in order to maintain a better tasting and higher density of the final solution thus reducing reflux through the digestive tract. […] Ten µL of the solution (or vehicle alone) was sublingually administered to mice. For intranasal administration, requiring more hydrophilic solution, AKBA was dissolved in DMSO and saline (1:3, v/v), and given to mice at the same final dose of 5 mg/kg. Cerebral AKBA was quantified in a separate subset of mice at 5, 15 and 30 min after its administration, either sublingually or intranasally.

Caco-2 cells = system: Caco-2 cells; set-up: method as in PMID 19010411; conditions: in vitro model to simulate human intestinal absorption; cited from earlier work
5-LOX = system: 5-LOX; set-up: method as in PMID 9760176; conditions: cited from earlier work
[2] = sublingual AKBA 5 mg/kg 30 min before testing, Aβ vs SHAM, Aβ+AKBA vs Aβ

CC(=O)O[C@@H]1CC[C@@]2(C)[C@@H](CC[C@]3(C)[C@@H]2C(=O)C=C2[C@@H]4[C@@H](C)[C@H](C)CC[C@]4(C)CC[C@]23C)[C@@]1(C)C(=O)O [AKBA, 3-O-acetyl-11-keto-β-boswellic acid]
Plasmatic AUCs, sublingual vs intranasal [1]: higher after sublingual administration
Plasmatic AKBA levels ([1]; sublingual vs intranasal, 5, 15 and 30 min after administration): significantly higher after sublingual administration compared to intranasal
Depressive-like behavior induced by Aβ in the splash test, 5 min after AKBA (Aβ-treated mice; sublingual AKBA 5 mg/kg 5 min before testing): not reverted
Latency to leak in the splash test (Aβ-treated mice; [2]): such an outcome was reverted
Time spent performing self-care in the splash test (Aβ-treated mice; [2]): prevented such an effect
GFAP levels in the HIPP (optical density normalized to actin) (GFAP; HIPP): restored those levels back to control
GFAP levels in the PFC (optical density normalized to actin) (GFAP; PFC): prevented such an increase
CD11b levels in the HIPP (optical density normalized to actin) (CD11b; HIPP): not able to modify such an outcome
CD11b content in the PFC (optical density normalized to actin) (CD11b; PFC): no differences were found among experimental groups
Lowest dose showing antidepressant effects on intact mice (intact mice): 5 mg/kg
Permeability in Caco-2 cells (Caco-2 cells): low permeability
5-LOX inhibition (5-LOX): 5-LOX inhibitor
